≈ marks a conversion by molar mass, not a printed value. Calls of active or inactive are those of the source. The rule behind the calls is not given here. Non-standard residues stand in square brackets, D forms with d. Residues, ends and D or L forms follow the SMILES beside them. *: point of attachment. Palmitoleoyl = CCCCCC/C=C\CCCCCCCC(=O)*; PhAc = O=C(Cc1ccccc1)*; Bz = O=C(c1ccccc1)*; Ahx = NCCCCCC(=O)O
Key:
[1] = Minimum inhibitory concentration against Micrococcus luteus ATCC 9341; assay type: functional
Mus musculus [2] = organism: Mus musculus; assay: Concentration required for half-maximal lysis of mouse erythrocytes; NA = not active; assay type: functional, organism-based
Staphylococcus aureus = assay: Minimum inhibitory concentration against Staphylococcus aureus ATCC 6538; assay type: functional
Escherichia coli [3] = assay: Minimum inhibitory concentration against Escherichia coli ATCC 25922; assay type: functional
Candida albicans [4] = assay: Minimum inhibitory concentration against Candida albicans ATCC 36232; assay type: functional
Pseudomonas aeruginosa [5] = assay: Minimum inhibitory concentration against Pseudomonas aeruginosa ATCC 9027; assay type: functional
Mus musculus [6] = organism: Mus musculus; assay: Concentration required for half-maximal lysis of mouse erythrocytes; assay type: functional
[7] = Stability of the peptide in the presence of mouse serum; assay type: ADME, organism-based
Escherichia coli [8] = assay: Minimum inhibitory concentration against Escherichia coli ATCC 25922; NA = not active; assay type: functional, organism-based
Candida albicans [9] = assay: Minimum inhibitory concentration against Candida albicans ATCC 36232; NA = not active; assay type: functional, organism-based
Pseudomonas aeruginosa [10] = assay: Minimum inhibitory concentration against Pseudomonas aeruginosa ATCC 9027; NA = not active; assay type: functional, organism-based

SMILES	MIC [1] [µg/mL]	HD50 (Mus musculus [2])	MIC (Staphylococcus aureus) [µg/mL]	MIC (Escherichia coli [3]) [µg/mL]	MIC (Candida albicans [4]) [µg/mL]	MIC (Pseudomonas aeruginosa [5]) [µg/mL]	HD50 (Mus musculus [6]) [µg/mL]	half-life [7] [min]	MIC (Escherichia coli [8])	MIC (Candida albicans [9])	MIC (Pseudomonas aeruginosa [10])
CC[C@H](C)[C@H](NC(=O)CN)C(=O)NCC(=O)N[C@@H](CCCCN)C(=O)N[C@@H](Cc1ccccc1)C(=O)N[C@@H](CC(C)C)C(=O)N[C@@H](Cc1c[nH]cn1)C(=O)N[C@@H](CO)C(=O)N[C@@H](C)C(=O)N[C@@H](CCCCN)C(=O)N[C@@H](CCCCN)C(=O)N[C@@H](Cc1ccccc1)C(=O)NCC(=O)N[C@@H](CCCCN)C(=O)N[C@@H](C)C(=O)N[C@@H](Cc1ccccc1)C(=O)N[C@H](C(=O)NCC(=O)N[C@@H](CCC(=O)O)C(=O)N[C@H](C(=O)N[C@@H](CCSC)C(=O)N[C@@H](CC(N)=O)C(=O)N[C@@H](CO)C(=O)O)[C@@H](C)CC)C(C)C [MAGAININ 2] (H-GIGKFLHSAKKFGKAFVGEIMNS-OH)	50 (≈ 20.3 µM)	inactive	40 (≈ 16.2 µM)	20 (≈ 8.11 µM)	50 (≈ 20.3 µM)	20 (≈ 8.11 µM)	–	–	–	–	–
CC(C)[C@H](NC(=O)[C@H](CS)NC(=O)[C@@H](NC(=O)[C@H](CCCN=C(N)N)NC(=O)[C@H](CCCCN)NC(=O)CNC(=O)[C@H](CC(N)=O)NC(=O)[C@H](CS)NC(=O)[C@H](Cc1ccc(O)cc1)NC(=O)[C@H](CCCCN)NC(=O)[C@@H](N)CCCCN)C(C)C)C(=O)N[C@@H](CS)C(=O)N[C@@H](CCCN=C(N)N)C(N)=O (H-KKYCNGKRVCVCR-NH2)	6.3 (≈ 4.05 µM)	–	6.3 (≈ 4.05 µM)	25 (≈ 16.1 µM)	12.5 (≈ 8.03 µM)	25 (≈ 16.1 µM)	>100	–	–	–	–
CC(C)[C@H](NC(=O)[C@H](CS)NC(=O)[C@@H](NC(=O)[C@H](CCCN=C(N)N)NC(=O)[C@H](CCCCN)NC(=O)CNC(=O)[C@H](CC(N)=O)NC(=O)[C@H](CS)NC(=O)[C@@H](N)Cc1ccc(O)cc1)C(C)C)C(=O)N[C@@H](CS)C(=O)N[C@@H](CCCN=C(N)N)C(N)=O (H-YCNGKRVCVCR-NH2)	25 (≈ 19.2 µM)	–	25 (≈ 19.2 µM)	12.5 (≈ 9.62 µM)	25 (≈ 19.2 µM)	50 (≈ 38.5 µM)	>100	–	–	–	–
CC[C@H](C)[C@H](NC(=O)[C@H](Cc1ccc(O)cc1)NC(=O)[C@H](CCCCN)NC(=O)[C@H](CCCCN)NC(C)=O)C(=O)N[C@@H](CCCCN)C(=O)N[C@H](C(=O)N[C@@H](Cc1ccccc1)C(=O)N[C@H](C(=O)N[C@@H](Cc1ccccc1)C(=O)N[C@@H](CCCCN)C(N)=O)C(C)C)C(C)C (Ac-KKYIKVFVFK-NH2)	–	–	100 (≈ 74.6 µM)	–	–	–	–	30	–	–	–
CC(C)[C@H](NC(=O)[C@H](CS)NC(=O)[C@@H](NC(=O)[C@H](CCCN=C(N)N)NC(=O)[C@H](CCCCN)NC(=O)CNC(=O)[C@H](CC(N)=O)NC(=O)[C@H](CS)NC(=O)[C@H](Cc1ccc(O)cc1)NC(=O)[C@@H](N)CCCCN)C(C)C)C(=O)N[C@@H](CS)C(=O)N[C@@H](CCCN=C(N)N)C(N)=O (H-KYCNGKRVCVCR-NH2)	6.3 (≈ 4.41 µM)	–	12.5 (≈ 8.75 µM)	50 (≈ 35 µM)	25 (≈ 17.5 µM)	50 (≈ 35 µM)	>100	–	–	–	–
CC(=O)N[C@@H](Cc1ccc(O)cc1)C(=O)N[C@@H](CS)C(=O)N[C@@H](CC(N)=O)C(=O)NCC(=O)N[C@@H](CCCCN)C(=O)N[C@@H](CCCN=C(N)N)C(=O)N[C@H](C(=O)N[C@@H](CS)C(=O)N[C@H](C(=O)N[C@@H](CS)C(=O)N[C@@H](CCCN=C(N)N)C(N)=O)C(C)C)C(C)C (Ac-YCNGKRVCVCR-NH2)	100 (≈ 74.5 µM)	–	50 (≈ 37.3 µM)	–	–	–	>100	–	inactive	inactive	inactive
CC[C@H](C)[C@H](NC(=O)CN)C(=O)NCC(=O)N[C@@H](C)C(=O)N[C@H](C(=O)N[C@@H](CC(C)C)C(=O)N[C@@H](CCCCN)C(=O)N[C@H](C(=O)N[C@@H](CC(C)C)C(=O)N[C@H](C(=O)N[C@H](C(=O)NCC(=O)N[C@@H](CC(C)C)C(=O)N1CCC[C@H]1C(=O)N[C@@H](C)C(=O)N[C@@H](CC(C)C)C(=O)N[C@H](C(=O)N[C@@H](CO)C(=O)N[C@@H](Cc1c[nH]c2ccccc12)C(=O)N[C@H](C(=O)N[C@@H](CCCCN)C(=O)N[C@@H](CCCNC(=N)N)C(=O)N[C@@H](CCCCN)C(=O)N[C@@H](CCCNC(=N)N)C(=O)N[C@@H](CCC(N)=O)C(=O)N[C@@H](CCC(N)=O)C(N)=O)[C@@H](C)CC)[C@@H](C)CC)[C@@H](C)O)[C@@H](C)O)C(C)C)C(C)C [MELITTIN]	0.78 (≈ 0.274 µM)	inactive	–	–	1.56 (≈ 0.548 µM)	–	–	–	–	–	–
CC[C@H](C)[C@H](NC(=O)[C@H](Cc1ccc(O)cc1)NC(=O)[C@H](CCCCN)NC(=O)[C@H](CCCCN)NC(=O)CCCCCNC(C)=O)C(=O)N[C@@H](CCCCN)C(=O)N[C@H](C(=O)N[C@@H](Cc1ccccc1)C(=O)N[C@H](C(=O)N[C@@H](Cc1ccccc1)C(=O)N[C@@H](CCCCN)C(N)=O)C(C)C)C(C)C (Ac-[Ahx]KKYIKVFVFK-NH2)	–	–	6.3 (≈ 4.33 µM)	–	–	–	–	45	–	–	–
CC(C)[C@H](NC(=O)[C@H](CS)NC(=O)[C@@H](NC(=O)[C@H](CCCN=C(N)N)NC(=O)[C@H](CCCCN)NC(=O)CNC(=O)[C@H](CC(N)=O)NC(=O)[C@H](CS)NC(=O)[C@H](Cc1ccc(O)cc1)NC(=O)CCCCCN)C(C)C)C(=O)N[C@@H](CS)C(=O)N[C@@H](CCCN=C(N)N)C(N)=O (H-[Ahx]YCNGKRVCVCR-NH2)	50 (≈ 35.4 µM)	–	50 (≈ 35.4 µM)	–	–	–	>100	–	inactive	inactive	inactive
CC(C)[C@H](NC(=O)[C@H](CS)NC(=O)[C@@H](NC(=O)[C@H](CCCN=C(N)N)NC(=O)[C@H](CCCCN)NC(=O)CNC(=O)[C@H](CC(N)=O)NC(=O)[C@H](CS)NC(=O)[C@H](Cc1ccc(O)cc1)NC(=O)Cc1ccccc1)C(C)C)C(=O)N[C@@H](CS)C(=O)N[C@@H](CCCN=C(N)N)C(N)=O (PhAc-YCNGKRVCVCR-NH2)	> 100	–	100 (≈ 70.5 µM)	–	–	–	>100	–	inactive	inactive	inactive
CC(=O)NCCCCCC(=O)N[C@@H](Cc1ccc(O)cc1)C(=O)N[C@@H](CS)C(=O)N[C@@H](CC(N)=O)C(=O)NCC(=O)N[C@@H](CCCCN)C(=O)N[C@@H](CCCN=C(N)N)C(=O)N[C@H](C(=O)N[C@@H](CS)C(=O)N[C@H](C(=O)N[C@@H](CS)C(=O)N[C@@H](CCCN=C(N)N)C(N)=O)C(C)C)C(C)C (Ac-[Ahx]YCNGKRVCVCR-NH2)	> 100	–	> 100	–	–	–	>100	–	inactive	inactive	inactive
CC(C)[C@H](NC(=O)[C@H](CS)NC(=O)[C@@H](NC(=O)[C@H](CCCN=C(N)N)NC(=O)[C@H](CCCCN)NC(=O)CNC(=O)[C@H](CC(N)=O)NC(=O)[C@H](CS)NC(=O)[C@H](Cc1ccc(O)cc1)NC(=O)[C@H](Cc1ccccc1)NC(=O)[C@@H](N)CCCCN)C(C)C)C(=O)N[C@@H](CS)C(=O)N[C@@H](CCCN=C(N)N)C(N)=O (H-KFYCNGKRVCVCR-NH2)	6.3 (≈ 4 µM)	–	6.3 (≈ 4 µM)	25 (≈ 15.9 µM)	12.5 (≈ 7.94 µM)	50 (≈ 31.7 µM)	>100	–	–	–	–
CCCCCC/C=C\CCCCCCCC(=O)N[C@@H](Cc1ccc(O)cc1)C(=O)N[C@@H](CS)C(=O)N[C@@H](CC(N)=O)C(=O)NCC(=O)N[C@@H](CCCCN)C(=O)N[C@@H](CCCN=C(N)N)C(=O)N[C@H](C(=O)N[C@@H](CS)C(=O)N[C@H](C(=O)N[C@@H](CS)C(=O)N[C@@H](CCCN=C(N)N)C(N)=O)C(C)C)C(C)C (Palmitoleoyl-YCNGKRVCVCR-NH2)	> 100	–	> 100	–	–	–	>100	–	inactive	inactive	inactive
CC[C@H](C)[C@H](NC(=O)[C@H](Cc1ccc(O)cc1)NC(=O)[C@H](CCCCN)NC(=O)[C@H](CCCCN)NC(=O)c1ccccc1)C(=O)N[C@@H](CCCCN)C(=O)N[C@H](C(=O)N[C@@H](Cc1ccccc1)C(=O)N[C@H](C(=O)N[C@@H](Cc1ccccc1)C(=O)N[C@@H](CCCCN)C(N)=O)C(C)C)C(C)C (Bz-KKYIKVFVFK-NH2) [listing 1 of 2 here]	–	–	–	–	–	–	–	30	–	–	–
CC(C)[C@H](NC(=O)[C@H](CS)NC(=O)[C@@H](NC(=O)[C@H](CCCN=C(N)N)NC(=O)[C@H](CCCCN)NC(=O)CNC(=O)[C@H](CC(N)=O)NC(=O)[C@H](CS)NC(=O)[C@H](Cc1ccc(O)cc1)NC(=O)[C@@H](N)Cc1ccccc1)C(C)C)C(=O)N[C@@H](CS)C(=O)N[C@@H](CCCN=C(N)N)C(N)=O (H-FYCNGKRVCVCR-NH2)	12.5 (≈ 8.64 µM)	–	25 (≈ 17.3 µM)	25 (≈ 17.3 µM)	25 (≈ 17.3 µM)	25 (≈ 17.3 µM)	>100	–	–	–	–
CC[C@H](C)[C@H](NC(=O)[C@H](Cc1ccc(O)cc1)NC(=O)[C@H](CCCCN)NC(=O)[C@@H](N)CCCCN)C(=O)N[C@@H](CCCCN)C(=O)N[C@H](C(=O)N[C@@H](Cc1ccccc1)C(=O)N[C@H](C(=O)N[C@@H](Cc1ccccc1)C(=O)N[C@@H](CCCCN)C(N)=O)C(C)C)C(C)C (H-KKYIKVFVFK-NH2)	–	–	6.3 (≈ 4.85 µM)	–	–	–	–	8	–	–	–
CC[C@H](C)[C@H](NC(=O)[C@H](Cc1ccc(O)cc1)NC(=O)[C@H](CCCCN)NC(=O)[C@H](CCCCN)NC(=O)c1ccccc1)C(=O)N[C@@H](CCCCN)C(=O)N[C@H](C(=O)N[C@@H](Cc1ccccc1)C(=O)N[C@H](C(=O)N[C@@H](Cc1ccccc1)C(=O)N[C@@H](CCCCN)C(N)=O)C(C)C)C(C)C (Bz-KKYIKVFVFK-NH2) [listing 2 of 2 here]	–	–	50 (≈ 35.6 µM)	–	–	–	–	–	–	–	–

Reference: ChEMBL document CHEMBL1147581, “Development of novel lipid-peptide hybrid compounds with antibacterial activity from natural cationic antibacterial peptides” (Bioorg Med Chem Lett, 2004)
